Assay results reported in patent publication US9499550B2 (BRISTOL-MYERS SQUIBB COMPANY, priority 2012, dated 2016).
Read-outs that look alike come from different tables or passages of the source.

Columns and labels:
[1] = system: HCV genotype 1a (H77 strain) replicon in HUH-7 cells; test: HCV replicon luciferase reporter assay, genotype 1a; type: cell-based; conditions: HCV genotype 1a replicon luciferase, 3 days incubation
In short: (§1)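 Replicon inhibition for both genotypes was measured as Renilla luciferase signal (EnduRen, 7.5 μM final, 2 h) after 3-day, 37° C exposure of replicon-bearing HUH-7 cells in 4% FCS DMEM, 0.5% DMSO. The 1b construct carries S1179I; the 1a H77 construct carries P1496L and S2204I. Twenty-point, 3-fold dilutions were fitted four-parametrically for EC50, and CC50 was taken from multiplexed Cell Titer-Blue.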

[2] = system: HCV genotype 1b (Con1) replicon in HUH-7 cells; test: HCV replicon luciferase reporter assay, genotype 1b; type: cell-based; conditions: HCV genotype 1b replicon luciferase, 3 days incubation
In short: as §1

[3] = Hepatitis C virus, Huh-7, 72 h, read-out: LE_1a (EC50, range)
[4] = Hepatitis C virus, Huh-7, 72 h, read-out: LE_1b (EC50, range)
[5] = Hepatitis C virus, Huh-7, 72 h, read-out: LE_1a (EC50)
[6] = Hepatitis C virus, Huh-7, 72 h, read-out: LE_1b (EC50)

`CC[C@@H]1C[C@@H](C)CC/C=C\[C@@H]2C[C@@]2(C(=O)NS(=O)(=O)C2(C)CC2)NC(=O)[C@@H]2C[C@@H](Oc3nc4c(c5ccccc35)OCCC4)CN2C(=O)[C@H]1NC(=O)OC(C)(C)C` [Compound 6023, tert-butyl ((2R,6S,7R,9S,13aS,14aR,16aS,Z)-2-((3,4-dihydro-2H-pyrano[3,2-c]isoquinolin-6-yl)oxy)-7-ethyl-9-methyl-14a-(((1-methylcyclopropyl)sulfonyl)carbamoyl)-5,16-dioxo-1,2,3,5,6,7,8,9,10,11,13a,14,14a,15,16,16a-hexadecahydrocyclopropa[e]pyrrolo[1,2-a][1,4]diazacyclopentadecin-6-yl)carbamate] showed an EC50 [1, 3] of 4.82 to 103 nM and an EC50 [2, 4] of 4.82 to 103 nM.

For `CC[C@@H]1C[C@H](C)CC/C=C\[C@@H]2C[C@@]2(C(=O)NS(=O)(=O)C2(C)CC2)NC(=O)[C@@H]2C[C@@H](Oc3nc4c(c5ccccc35)OCCC4)CN2C(=O)[C@H]1NC(=O)OC(C)(C)C` [Compound 6024, tert-butyl ((2R,6S,7R,9R,13aS,14aR,16aS,Z)-2-((3,4-dihydro-2H-pyrano[3,2-c]isoquinolin-6-yl)oxy)-7-ethyl-9-methyl-14a-(((1-methylcyclopropyl)sulfonyl)carbamoyl)-5,16-dioxo-1,2,3,5,6,7,8,9,10,11,13a,14,14a,15,16,16a-hexadecahydrocyclopropa[e]pyrrolo[1,2-a][1,4]diazacyclopentadecin-6-yl)carbamate], the EC50 [1, 3] was < 5.46 nM and the EC50 [2, 4] was < 5.46 nM.

With `C[C@@H]1CC/C=C\[C@@H]2C[C@@]2(C(=O)NS(=O)(=O)C2(CF)CC2)NC(=O)[C@@H]2C[C@@H](Oc3nc4c(c5ccccc35)OCCC4)CN2C(=O)[C@@H](NC(=O)OC(C)(C)C)[C@H](C)C1` [Compound 6026, tert-butyl ((2R,6S,7R,9R,13aS,14aR,16aS,Z)-2-((3,4-dihydro-2H-pyrano[3,2-c]isoquinolin-6-yl)oxy)-14a-(((1-(fluoromethyl)cyclopropyl)sulfonyl)carbamoyl)-7,9-dimethyl-5,16-dioxo-1,2,3,5,6,7,8,9,10,11,13a,14,14a,15,16,16a-hexadecahydrocyclopropa[e]pyrrolo[1,2-a][1,4]diazacyclopentadecin-6-yl)carbamate] the EC50 [1, 5] was 1.13 nM, the EC50 [1, 3] was < 5.46 nM and the EC50 [2, 6] was 0.7 nM. For the same compound, the EC50 [2, 4] was < 5.46 nM.

In the case of `CC[C@@H]1C[C@H](C)CC/C=C\[C@@H]2C[C@@]2(C(=O)NS(=O)(=O)C2(C)CC2)NC(=O)[C@@H]2C[C@@H](Oc3nc4c(c5ccccc35)OCCC4)CN2C(=O)C1NC(=O)OC(C)(C)C(F)(F)F` (stereo partly drawn) [Compound 6028, 1,1,1-trifluoro-2-methylpropan-2-yl((2R,6S,7R,9R,13aS,14aR,16aS,Z)-2-((3,4-dihydro-2H-pyrano[3,2-c]isoquinolin-6-yl)oxy)-7-ethyl-9-methyl-14a-(((1-methylcyclopropyl)sulfonyl)carbamoyl)-5,16-dioxo-1,2,3,5,6,7,8,9,10,11,13a,14,14a,15,16,16a-hexadecahydrocyclopropa[e]pyrrolo[1,2-a][1,4]diazacyclopentadecin-6-yl)carbamate], the EC50 [1, 3] is reported as < 5.46 nM and the EC50 [2, 4] is reported as < 5.46 nM.

Compound `C[C@H]1CC/C=C\[C@@H]2C[C@@]2(C(=O)NS(=O)(=O)C2(CF)CC2)NC(=O)[C@@H]2C[C@@H](Oc3nc4c(c5ccccc35)OCCC4)CN2C(=O)[C@@H](NC(=O)OC(C)(C)C(F)(F)F)[C@H](C)C1` [Compound 6029, 1,1,1-trifluoro-2-methylpropan-2-yl((2R,6S,7R,9S,13aS,14aR,16aS,Z)-2-((3,4-dihydro-2H-pyrano[3,2-c]isoquinolin-6-yl)oxy)-14a-(((1-(fluoromethyl)cyclopropyl)sulfonyl)carbamoyl)-7,9-dimethyl-5,16-dioxo-1,2,3,5,6,7,8,9,10,11,13a,14,14a,15,16,16a-hexadecahydrocyclopropa[e]pyrrolo[1,2-a][1,4]diazacyclopentadecin-6-yl)carbamate] has an EC50 [1, 3] of 4.82 to 103 nM and an EC50 [2, 4] of 4.82 to 103 nM.

In the case of `C[C@@H]1CC/C=C\[C@@H]2C[C@@]2(C(=O)NS(=O)(=O)C2(CF)CC2)NC(=O)[C@@H]2C[C@@H](Oc3nc4c(c5ccccc35)OCCC4)CN2C(=O)[C@@H](NC(=O)OC(C)(C)C(F)(F)F)[C@H](C)C1` [Compound 6030, 1,1,1-trifluoro-2-methylpropan-2-yl((2R,6S,7R,9R,13aS,14aR,16aS,Z)-2-((3,4-dihydro-2H-pyrano[3,2-c]isoquinolin-6-yl)oxy)-14a-(((1-(fluoromethyl)cyclopropyl)sulfonyl)carbamoyl)-7,9-dimethyl-5,16-dioxo-1,2,3,5,6,7,8,9,10,11,13a,14,14a,15,16,16a-hexadecahydrocyclopropa[e]pyrrolo[1,2-a][1,4]diazacyclopentadecin-6-yl)carbamate], the EC50 [1, 5] is reported as 1.43 nM, the EC50 [1, 3] is reported as < 5.46 nM and the EC50 [2, 6] is reported as 0.81 nM. The EC50 [2, 4] was < 5.46 nM.

With `C[C@H]1CC/C=C\[C@@H]2C[C@@]2(C(=O)NS(=O)(=O)C2(CF)CC2)NC(=O)[C@@H]2C[C@@H](Oc3nc4c(c5ccccc35)OCCC4)CN2C(=O)[C@@H](NC(=O)OC(C)(C)C(C)(F)F)[C@H](C)C1` [Compound 6031, 3,3-difluoro-2-methylbutan-2-yl((2R,6S,7R,9S,13aS,14aR,16aS,Z)-2-((3,4-dihydro-2H-pyrano[3,2-c]isoquinolin-6-yl)oxy)-14a-(((1-(fluoromethyl)cyclopropyl)sulfonyl)carbamoyl)-7,9-dimethyl-5,16-dioxo-1,2,3,5,6,7,8,9,10,11,13a,14,14a,15,16,16a-hexadecahydrocyclopropa[e]pyrrolo[1,2-a][1,4]diazacyclopentadecin-6-yl)carbamate] the EC50 [1, 3] was 4.82 to 103 nM and the EC50 [2, 4] was 4.82 to 103 nM.

With `C[C@H]1CC/C=C\[C@@H]2C[C@@]2(C(=O)NS(=O)(=O)C2(C)CC2)NC(=O)[C@@H]2C[C@@H](Oc3nc4c(c5ccccc35)OCCC4)CN2C(=O)[C@@H](NC(=O)OC(C)(C)C(C)(F)F)[C@H](C)C1` [Compound 6033, 3,3-difluoro-2-methylbutan-2-yl((2R,6S,7R,9S,13aS,14aR,16aS,Z)-2-((3,4-dihydro-2H-pyrano[3,2-c]isoquinolin-6-yl)oxy)-7,9-dimethyl-14a-(((1-methylcyclopropyl)sulfonyl)carbamoyl)-5,16-dioxo-1,2,3,5,6,7,8,9,10,11,13a,14,14a,15,16,16a-hexadecahydrocyclopropa[e]pyrrolo[1,2-a][1,4]diazacyclopentadecin-6-yl)carbamate] the EC50 [1, 5] was 10.7 nM, the EC50 [1, 3] was 4.82 to 103 nM and the EC50 [2, 6] was 4.38 nM. For the same compound, the EC50 [2, 4] was < 5.46 nM.

With `C[C@@H]1CC/C=C\[C@@H]2C[C@@]2(C(=O)NS(=O)(=O)C2(C)CC2)NC(=O)[C@@H]2C[C@@H](Oc3nc4c(c5ccccc35)OCCC4)CN2C(=O)[C@@H](NC(=O)OC(C)(C)C(C)(F)F)[C@H](C)C1` [Compound 6034, 3,3-difluoro-2-methylbutan-2-yl((2R,6S,7R,9R,13aS,14aR,16aS,Z)-2-((3,4-dihydro-2H-pyrano[3,2-c]isoquinolin-6-yl)oxy)-7,9-dimethyl-14a-(((1-methylcyclopropyl)sulfonyl)carbamoyl)-5,16-dioxo-1,2,3,5,6,7,8,9,10,11,13a,14,14a,15,16,16a-hexadecahydrocyclopropa[e]pyrrolo[1,2-a][1,4]diazacyclopentadecin-6-yl)carbamate] the EC50 [1, 3] was < 5.46 nM and the EC50 [2, 4] was < 5.46 nM.

With `COc1cc2ccccc2c(O[C@@H]2C[C@H]3C(=O)N[C@]4(C(=O)NS(=O)(=O)C5CC5)C[C@H]4/C=C\CC[C@@H](C)C[C@@H](C)[C@H](NC(=O)OC(C)(C)C(C)(F)F)C(=O)N3C2)n1` [Compound 6036, 3,3-difluoro-2-methylbutan-2-yl((2R,6S,7R,9R,13aS,14aR,16aS,Z)-14a-((cyclopropylsulfonyl)carbamoyl)-2-((3-methoxyisoquinolin-1-yl)oxy)-7,9-dimethyl-5,16-dioxo-1,2,3,5,6,7,8,9,10,11,13a,14,14a,15,16,16a-hexadecahydrocyclopropa[e]pyrrolo[1,2-a][1,4]diazacyclopentadecin-6-yl)carbamate] the EC50 [1, 5] was 0.53 nM, the EC50 [1, 3] was < 5.46 nM and the EC50 [2, 6] was 0.38 nM. The EC50 [2, 4] was < 5.46 nM.

For `COc1cc2ccccc2c(O[C@@H]2C[C@H]3C(=O)N[C@]4(C(=O)NS(=O)(=O)C5(CF)CC5)C[C@H]4/C=C\CC[C@@H](C)C[C@@H](C)[C@H](NC(=O)OC(C)(C)C(C)(F)F)C(=O)N3C2)n1` [Compound 6038, 3,3-difluoro-2-methylbutan-2-yl((2R,6S,7R,9R,13aS,14aR,16aS,Z)-14a-(((1-(fluoromethyl)cyclopropyl)sulfonyl)carbamoyl)-2-((3-methoxyisoquinolin-1-yl)oxy)-7,9-dimethyl-5,16-dioxo-1,2,3,5,6,7,8,9,10,11,13a,14,14a,15,16,16a-hexadecahydrocyclopropa[e]pyrrolo[1,2-a][1,4]diazacyclopentadecin-6-yl)carbamate], the EC50 [1, 3] was < 5.46 nM and the EC50 [2, 4] was < 5.46 nM.

`C[C@H]1CC/C=C\[C@@H]2C[C@@]2(C(=O)NS(=O)(=O)C2(CF)CC2)NC(=O)[C@@H]2C[C@@H](Oc3nc4c(c5ccccc35)OCCC4)CN2C(=O)[C@@H](NC(=O)OC(C)(C)C(C)(F)F)[C@H](C)C1` [Compound 6039, 3,3-difluoro-2-methylbutan-2-yl((2R,6S,7R,9S,13aS,14aR,16aS,Z)-2-((3,4-dihydro-2H-pyrano[3,2-c]isoquinolin-6-yl)oxy)-14a-(((1-(fluoromethyl)cyclopropyl)sulfonyl)carbamoyl)-7,9-dimethyl-5,16-dioxo-1,2,3,5,6,7,8,9,10,11,13a,14,14a,15,16,16a-hexadecahydrocyclopropa[e]pyrrolo[1,2-a][1,4]diazacyclopentadecin-6-yl)carbamate] showed an EC50 ([1]; read-out: LE_1a (EC50, range)) of 5.01 to 35 nM and an EC50 ([2]; read-out: LE_1b (EC50, range)) of 5.01 to 35 nM.
